20 molecules from patent publication US11008313B2, “Substituted 1-methyl-1,2,3,4-tetrahydroisoquinoline molecules as PCSK9 allosteric binders” (Merck Sharp & Dohme Corp., priority 2016, dated 2021) can be followed below.

In test [1] the target is T1, PCSK9 (Homo sapiens, UniProt Q8NBP7). The test is described as follows: Differential scanning calorimetry (DSC) assay, direct binding / thermal stabilization of PCSK9. The following applies: Tm(with compound)−Tm(no compound); 2 μM PCSK9, 300 μM test compound. How it is done:
Differential scanning calorimetry (DSC) was used as a biophysical method to confirm direct binding to PCSK9. A solution containing 2 μM PCSK9 with or without 300 μM test compound in 25 mM HEPES (pH 7.5)/150 mM NaCl/1 mM CaCl2/3.75% DMSO was transferred to the sample cell of the DSC instrument, while buffer alone was placed in the reference cell. Both cells were heated at a constant rate (200° C./hr) from 20-80° C. while recording the excess heat capacity of the sample cell relative to the reference cell. Each thermogram was analyzed to provide the melting temperature (Tm) of the protein.
The higher the temperature shift generally, the higher the affinity.

The target in test [2] is T1, PCSK9. Kind of test: Fluorescence polarization competition binding assay (probe: compound of Example 57). The following applies: 2 μM PCSK9, 50 nM compound of Example 57 as probe, overnight incubation; read-out: FP IC. As to the method:
Relative compound affinities were determined using a competition binding assay with a fluorescence polarization format. Solution (49 μL) containing 2 μM PCSK9 and 50 nM compound of Example 57 in 20 mM HEPES (pH 7.5)/150 mM NaCl/1 mM CaCl2/0.005% P-20 was dispensed to wells of a 384-well black non-binding microplate before the addition of 1 μL of test compound or DMSO. After mixing, the plate was centrifuged and sealed for overnight incubation in the dark. The anisotropy signal was read using a fluorescence polarization protocol on a Perkin-Elmer Envision plate reader. The % inhibition was determined relative to the window defined by the DMSO control wells and wells containing 50 nM probe in the absence of PCSK9.
In general terms: Polarisation of emitted light reports the rotation of a fluorescent probe.

SMILES strings stand for the structures.

T1 sequence (Q8NBP7 153-692): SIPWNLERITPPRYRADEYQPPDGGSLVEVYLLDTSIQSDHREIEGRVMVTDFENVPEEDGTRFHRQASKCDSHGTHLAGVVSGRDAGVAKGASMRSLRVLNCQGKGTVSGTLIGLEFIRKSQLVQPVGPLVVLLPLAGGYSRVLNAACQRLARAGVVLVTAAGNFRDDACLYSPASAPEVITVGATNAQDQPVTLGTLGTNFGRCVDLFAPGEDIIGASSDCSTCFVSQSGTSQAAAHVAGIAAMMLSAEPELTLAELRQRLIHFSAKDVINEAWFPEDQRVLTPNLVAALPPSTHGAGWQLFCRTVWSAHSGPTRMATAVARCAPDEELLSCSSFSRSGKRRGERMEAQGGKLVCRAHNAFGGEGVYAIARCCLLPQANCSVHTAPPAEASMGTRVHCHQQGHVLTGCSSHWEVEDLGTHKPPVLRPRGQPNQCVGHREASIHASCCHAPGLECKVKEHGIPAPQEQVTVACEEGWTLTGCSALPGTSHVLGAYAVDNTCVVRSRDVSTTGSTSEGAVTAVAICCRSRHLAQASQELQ

As for `COC(=O)c1ccc(-c2ccc(Oc3cc4c(cc3OCC3CCCCO3)CCN[C@]4(C)CC(=O)Nc3cccc(OC)c3)cc2F)cc1` (stereo partly drawn) [Example 89, methyl 2′-fluoro-4′-(((1R)-1-(2-((3-methoxyphenyl)amino)-2-oxoethyl)-1-methyl-6-((tetrahydro-2H-pyran-2-yl)methoxy)-1,2,3,4-tetrahydroisoquinolin-7-yl)oxy)-[1,1′-biphenyl]-4-carboxylate], the ΔTm at 300 µM at PCSK9 [1] turned out to be 5.98 °C. The IC50 on PCSK9 [2] is 0.00276 µM.
The matching figures for `C[C@]1(CC(=O)Nc2nccs2)NCCc2cc(OCC3CCCCO3)c(Oc3ccc(C(=O)O)c(F)c3)cc21` (stereo partly drawn) [Example 62, 2-fluoro-4-(((1R)-1-methyl-1-(2-oxo-2-(thiazol-2-ylamino)ethyl)-6-((tetrahydro-2H-pyran-2-yl)methoxy)-1,2,3,4-tetrahydroisoquinolin-7-yl)oxy)benzoic acid]: 6.03 °C and 0.529 µM.
The matching figures for `Cc1nnc(-c2cn(CCOc3cc4c(cc3Oc3ccc(C(=O)O)c(F)c3)[C@@](C)(CC(=O)Nc3nccs3)NCC4)nn2)o1` [Example 39, (R)-2-fluoro-4-((1-methyl-6-(2-(4-(5-methyl-1,3,4-oxadiazol-2-yl)-1H-1,2,3-triazol-1-yl)ethoxy)-1-(2-oxo-2-(thiazol-2-ylamino)ethyl)-1,2,3,4-tetrahydroisoquinolin-7-yl)oxy)benzoic acid]: 5.98 °C and 0.292 µM.
The matching figures for `COc1cc2c(cc1Oc1ccc(-c3ccc(CC(=O)O)cc3)cc1)[C@@](C)(CC(=O)Nc1nccs1)NCC2` [Example 36, (R)-2-(4′-((6-methoxy-1-methyl-1-(2-oxo-2-(thiazol-2-ylamino)ethyl)-1,2,3,4-tetrahydroisoquinolin-7-yl)oxy)-[1,1′-biphenyl]-4-yl)acetic acid]: 5.56 °C and 0.767 µM.
Turning to `C[C@]1(CC(=O)Nc2nccs2)NCCc2cc(OCC3CCCO3)c(Oc3ccc(-c4ccc(C(=O)O)cc4)c(F)c3)cc21` (stereo partly shown) [Example 13], the ΔTm at 300 µM on PCSK9 [1] stood at 8.4 °C. Moreover, the IC50 at PCSK9 [2] came to 0.0993 µM.
`COC(=O)c1ccc(Oc2cc3c(cc2OCC2CCCCO2)CCN[C@]3(C)CC(=O)Nc2nccs2)cc1F` (stereo partly drawn) [Example 72, methyl 2-fluoro-4-(((1R)-1-methyl-1-(2-oxo-2-(thiazol-2-ylamino)ethyl)-6-((tetrahydro-2H-pyran-2-yl)methoxy)-1,2,3,4-tetrahydroisoquinolin-7-yl)oxy)benzoate]: the ΔTm at 300 µM at PCSK9 [1] worked out at 6.15 °C. The IC50 on PCSK9 [2] stood at 0.68 µM.
The matching figures for `Cc1ccc(C2C(C(=O)O)c3ccccc3C(=O)N2c2cccc(-c3cn(CCOc4cc5c(cc4Oc4ccc(C(=O)O)c(F)c4)[C@@](C)(CC(=O)Nc4nccs4)NCC5)nn3)c2)cc1` (stereo partly drawn) [Example 51, 2-(3-(1-(2-(((R)-7-(4-carboxy-3-fluorophenoxy)-1-methyl-1-(2-oxo-2-(thiazol-2-ylamino)ethyl)-1,2,3,4-tetrahydroisoquinolin-6-yl)oxy)ethyl)-1H-1,2,3-triazol-4-yl)phenyl)-1-oxo-3-(p-tolyl)-1,2,3,4-tetrahydroisoquinoline-4-carboxylic acid]: 6.87 °C and 0.705 µM.
`C[C@]1(CC(=O)Nc2nccs2)NCCc2cc(OCC3CCCCO3)c(Oc3ccc(C(=O)O)c(F)c3)cc21` (stereo partly drawn) [Example 66, 2-fluoro-4-(((1R)-1-methyl-1-(2-oxo-2-(thiazol-2-ylamino)ethyl)-6-((tetrahydro-2H-pyran-2-yl)methoxy)-1,2,3,4-tetrahydroisoquinolin-7-yl)oxy)benzoic acid]: on PCSK9 [1], the “DSC ΔTm” value amounted to 9.14 °C. Also, the IC50 on PCSK9 [2] is 0.395 µM.
On to `COC(=O)CCc1ccc(-c2ccc(Oc3cc4c(cc3OC)CCN[C@]4(C)CC(=O)Nc3nccs3)cn2)cc1` [Example 16, methyl (R)-3-(4-(5-((6-methoxy-1-methyl-1-(2-oxo-2-(thiazol-2-ylamino)ethyl)-1,2,3,4-tetrahydroisoquinolin-7-yl)oxy)pyridin-2-yl)phenyl)propanoate], for which, on PCSK9 [1], the ΔTm at 300 µM amounted to 3.57 °C. Further, the IC50 at PCSK9 [2] worked out at 0.00415 µM.
The matching figures for `COc1cc2c(cc1Oc1ccc(-c3ccc(C(=O)O)cc3)c(F)c1)[C@@](C)(CC(=O)Nc1nccs1)NCC2` [Example 22, (R)-2′-fluoro-4′-((6-methoxy-1-methyl-1-(2-oxo-2-(thiazol-2-ylamino)ethyl)-1,2,3,4-tetrahydroisoquinolin-7-yl)oxy)-[1,1′-biphenyl]-4-carboxylic acid]: 7.52 °C and 0.211 µM.
For `C[C@]1(CC(=O)Nc2nccs2)NCCc2cc(OCC3CCCCO3)c(Oc3cccc(F)c3)cc21` (single isomer, unassigned) [Example 81, 2-((1R)-7-(3-fluorophenoxy)-1-methyl-6-(((S or R)-tetrahydro-2H-pyran-2-yl)methoxy)-1,2,3,4-tetrahydroisoquinolin-1-yl)-N-(thiazol-2-yl)acetamide], the “DSC ΔTm” value on PCSK9 [1] amounted to 6.585 °C. Besides, the IC50 on PCSK9 [2] amounted to 0.55 µM.
The matching figures for `Cc1ccc(C2C(C(=O)O)c3ccccc3C(=O)N2c2cccc(-c3cn(CCOc4cc5c(cc4Oc4ccc(C(=O)O)c(F)c4)[C@@](C)(CC(=O)Nc4nccs4)NCC5)nn3)c2)cc1` (stereo partly drawn) [Example 54, 2-(3-(1-(2-(((R)-7-(4-carboxy-3-fluorophenoxy)-1-methyl-1-(2-oxo-2-(thiazol-2-ylamino)ethyl)-1,2,3,4-tetrahydroisoquinolin-6-yl)oxy)ethyl)-1H-1,2,3-triazol-4-yl)phenyl)-1-oxo-3-(p-tolyl)-1,2,3,4-tetrahydroisoquinoline-4-carboxylic acid]: 5.98 °C and 0.837 µM.
Consider `COc1cc2c(cc1Oc1ccc(-c3ccc(C(=O)O)cc3)nc1)[C@@](C)(CC(=O)Nc1nccs1)NCC2` [Example 35, (R)-4-(5-((6-methoxy-1-methyl-1-(2-oxo-2-(thiazol-2-ylamino)ethyl)-1,2,3,4-tetrahydroisoquinolin-7-yl)oxy)pyridin-2-yl)benzoic acid], for which, on PCSK9 [1], the ΔTm at 300 µM amounted to 5.29 °C. Further, at PCSK9 [2], the IC50 was 0.681 µM.
The matching figures for `COc1cc2c(cc1Oc1cncc(F)c1)[C@@](C)(CC(=O)Nc1nccs1)NCC2` [Example 8, (R)-2-(7-((5-fluoropyridin-3-yl)oxy)-6-methoxy-1-methyl-1,2,3,4-tetrahydroisoquinolin-1-yl)-N-(thiazol-2-yl)acetamide]: 5.44 °C and 0.753 µM.
On to `C[C@]1(CC(=O)Nc2nccs2)NCCc2cc(OCC3CCCCO3)c(Oc3ccc(C(=O)Nc4n[nH]c5ncccc45)c(F)c3)cc21` (single isomer, unassigned) [Example 75, 2-fluoro-4-(((R)-1-methyl-1-(2-oxo-2-(thiazol-2-ylamino)ethyl)-6-(((R or S)-tetrahydro-2H-pyran-2-yl)methoxy)-1,2,3,4-tetrahydroisoquinolin-7-yl)oxy)-N-(1H-pyrazolo[3,4-b]pyridin-3-yl)benzamide], for which, on PCSK9 [1], the thermal shift (ΔTm) at 300 µM came to 6.18 °C. Besides, on PCSK9 [2], the IC50 is 0.41 µM.
The matching figures for `COc1cc2c(cc1Oc1ccc(-c3ccc(C(=O)O)cc3F)cc1)[C@@](C)(CC(=O)Nc1nccs1)NCC2` [Example 29, (R)-2-fluoro-4′-((6-methoxy-1-methyl-1-(2-oxo-2-(thiazol-2-ylamino)ethyl)-1,2,3,4-tetrahydroisoquinolin-7-yl)oxy)-[1,1′-biphenyl]-4-carboxylic acid]: 5.37 °C and 0.416 µM.
The matching figures for `CC(C)(C)c1cc(NC(=O)c2ccc(Oc3cc4c(cc3OCC3CCCCO3)CCN[C@]4(C)CC(=O)Nc3nccs3)cc2F)[nH]n1` (stereo partly drawn) [Example 76, N-(3-(tert-butyl)-1H-pyrazol-5-yl)-2-fluoro-4-(((1R)-1-methyl-1-(2-oxo-2-(thiazol-2-ylamino)ethyl)-6-((tetrahydro-2H-pyran-2-yl)methoxy)-1,2,3,4-tetrahydroisoquinolin-7-yl)oxy)benzamide]: 7.92 °C and 0.535 µM.
The matching figures for `COc1cc2c(cc1Oc1ccc(-c3ccc(CCC(=O)O)cc3)c(F)c1)[C@@](C)(CC(=O)Nc1nccs1)NCC2` [Example 32, (R)-3-(2′-fluoro-4′-((6-methoxy-1-methyl-1-(2-oxo-2-(thiazol-2-ylamino)ethyl)-1,2,3,4-tetrahydroisoquinolin-7-yl)oxy)-[1,1′-biphenyl]-4-yl)propanoic acid]: 6.18 °C and 0.532 µM.
As to `C[C@]1(CC(=O)Nc2nccs2)NCCc2cc(OCc3ncccc3F)c(Oc3cccc(F)c3)cc21` [Example 84, (R)-2-(7-(3-fluorophenoxy)-6-((3-fluoropyridin-2-yl)methoxy)-1-methyl-1,2,3,4-tetrahydroisoquinolin-1-yl)-N-(thiazol-2-yl)acetamide], the thermal shift (ΔTm) at 300 µM at PCSK9 [1] turned out to be 6.32 °C. The IC50 on PCSK9 [2] was determined as 0.943 µM.
The matching figures for `C[C@]1(CC(=O)Nc2cccc3[nH]ccc23)NCCc2cc(OCC3CCCCO3)c(Oc3ccc(-c4ccc(C(=O)O)cc4)c(F)c3)cc21` (stereo partly drawn) [Example 92, 4′-(((1R)-1-(2-((1H-indol-4-yl)amino)-2-oxoethyl)-1-methyl-6-((tetrahydro-2H-pyran-2-yl)methoxy)-1,2,3,4-tetrahydroisoquinolin-7-yl)oxy)-2′-fluoro-[1,1′-biphenyl]-4-carboxylic acid]: 7.28 °C and 0.958 µM.

Usually ΔTm stands for the change in melting temperature against a reference sample.
